In PMC7782168, “Synthesis, telomerase inhibitory and anticancer activity of new 2-phenyl-4H-chromone derivatives containing 1,3,4-oxadiazole moiety” (Journal of Enzyme Inhibition and Medicinal Chemistry, 2020):

Legend:
telomerase = biological target: T1, telomerase (Homo sapiens, UniProt O14746); test: Telomerase activity assay using MGC-803 cells extract; type: biochemical; conditions: mean ± SD
T1 construct: assayed for telomerase activity using MGC-803 cells extract; endogenous in cells; host or cells: MGC-803 cell extract
T1 sequence (O14746 whole entry): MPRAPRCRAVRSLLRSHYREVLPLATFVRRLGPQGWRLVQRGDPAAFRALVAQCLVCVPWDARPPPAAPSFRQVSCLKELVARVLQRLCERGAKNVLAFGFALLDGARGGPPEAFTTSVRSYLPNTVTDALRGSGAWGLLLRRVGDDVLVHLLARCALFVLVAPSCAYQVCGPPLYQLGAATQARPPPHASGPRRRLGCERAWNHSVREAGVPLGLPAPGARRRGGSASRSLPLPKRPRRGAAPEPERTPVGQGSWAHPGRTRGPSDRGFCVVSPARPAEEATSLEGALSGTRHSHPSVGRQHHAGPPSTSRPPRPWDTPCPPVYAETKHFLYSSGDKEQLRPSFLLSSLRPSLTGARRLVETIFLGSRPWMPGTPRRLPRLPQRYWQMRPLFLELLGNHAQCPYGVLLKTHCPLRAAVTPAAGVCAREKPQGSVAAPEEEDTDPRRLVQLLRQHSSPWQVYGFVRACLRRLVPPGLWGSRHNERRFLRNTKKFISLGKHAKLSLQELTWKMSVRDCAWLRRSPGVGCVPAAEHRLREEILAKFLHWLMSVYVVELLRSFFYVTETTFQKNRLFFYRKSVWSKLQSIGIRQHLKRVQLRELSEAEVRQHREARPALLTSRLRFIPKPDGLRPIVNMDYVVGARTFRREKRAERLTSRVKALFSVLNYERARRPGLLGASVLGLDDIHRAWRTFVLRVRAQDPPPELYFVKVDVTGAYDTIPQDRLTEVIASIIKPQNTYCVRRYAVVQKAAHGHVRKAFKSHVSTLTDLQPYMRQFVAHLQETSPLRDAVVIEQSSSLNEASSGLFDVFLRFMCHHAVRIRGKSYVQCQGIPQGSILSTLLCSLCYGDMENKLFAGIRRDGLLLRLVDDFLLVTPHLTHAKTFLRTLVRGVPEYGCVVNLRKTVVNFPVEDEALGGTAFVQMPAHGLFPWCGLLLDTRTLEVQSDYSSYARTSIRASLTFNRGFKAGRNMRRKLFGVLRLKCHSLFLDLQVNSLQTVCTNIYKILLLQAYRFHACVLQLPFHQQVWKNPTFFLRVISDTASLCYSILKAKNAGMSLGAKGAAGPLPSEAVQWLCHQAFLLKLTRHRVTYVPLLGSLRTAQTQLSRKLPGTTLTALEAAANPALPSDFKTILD
T1 sequence (O60832 2-514 partner limits assumed): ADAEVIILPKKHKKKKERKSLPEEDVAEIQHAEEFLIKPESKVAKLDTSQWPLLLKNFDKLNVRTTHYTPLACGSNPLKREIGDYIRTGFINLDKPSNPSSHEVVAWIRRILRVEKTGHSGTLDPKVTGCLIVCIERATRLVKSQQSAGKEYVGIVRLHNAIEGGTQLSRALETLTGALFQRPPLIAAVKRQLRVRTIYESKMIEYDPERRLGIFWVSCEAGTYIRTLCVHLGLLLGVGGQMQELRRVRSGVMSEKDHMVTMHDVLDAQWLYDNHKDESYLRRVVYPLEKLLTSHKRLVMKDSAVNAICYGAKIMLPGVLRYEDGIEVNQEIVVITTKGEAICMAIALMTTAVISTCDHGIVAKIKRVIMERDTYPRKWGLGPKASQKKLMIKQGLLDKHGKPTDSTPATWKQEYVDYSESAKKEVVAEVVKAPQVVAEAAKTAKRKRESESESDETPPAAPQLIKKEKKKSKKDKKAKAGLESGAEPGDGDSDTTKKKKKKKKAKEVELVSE
T1 sequence (Q9NPE3 whole entry partner): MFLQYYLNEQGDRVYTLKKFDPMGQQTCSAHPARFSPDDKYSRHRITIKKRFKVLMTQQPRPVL
T1 sequence (Q9NX24 whole entry partner): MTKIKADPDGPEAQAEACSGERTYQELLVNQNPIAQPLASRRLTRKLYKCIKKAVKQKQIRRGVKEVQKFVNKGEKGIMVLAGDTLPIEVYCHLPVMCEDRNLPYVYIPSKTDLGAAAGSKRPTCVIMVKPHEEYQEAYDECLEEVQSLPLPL
T1 sequence (Q9NY12 whole entry partner): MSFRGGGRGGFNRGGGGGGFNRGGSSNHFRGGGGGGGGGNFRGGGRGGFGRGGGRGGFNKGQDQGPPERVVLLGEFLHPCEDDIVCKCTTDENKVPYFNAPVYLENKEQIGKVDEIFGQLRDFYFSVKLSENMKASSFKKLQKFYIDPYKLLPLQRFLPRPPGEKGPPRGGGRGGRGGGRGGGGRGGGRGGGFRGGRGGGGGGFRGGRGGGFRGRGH

| melting point [°C] | IC50 (telomerase) [µM] | Structure (SMILES) |
| --- | --- | --- |
| 224 to 226 | 2.22 ± 0.51 | COc1cc(OC)c2c(=O)c(OCC(=O)Nc3nnc(-c4cccs4)o3)c(-c3cc(OC)c(OC)c(OC)c3)oc2c1 [A32, 2–(5,7-dimethoxy-4-oxo-2–(3,4,5-trimethoxyphenyl)-4H-chromen-3-yloxy)-N-(5-(thiophen-2-yl)-1,3,4-oxadiazol-2-yl)acetamide] |
| 237 to 239 | > 60 | COc1cc(OC)c2c(=O)c(OCC(=O)Nc3nnc(-c4ccccc4)o3)c(-c3ccc(OC)c(OC)c3)oc2c1 [B1, 2–(2-(3,4-dimethoxyphenyl)-5,7-dimethoxy-4-oxo-4H-chromen-3-yloxy)-N-(5-phenyl-1,3,4-oxadiazol-2-yl)acetamide] |
| 236 to 238 | 1.38 ± 0.25 | COc1cc(OC)c2c(=O)c(OCC(=O)Nc3nnc(-c4ccc(F)cc4)o3)c(-c3ccc(OC)c(OC)c3)oc2c1 [B2, 2–(2-(3,4-dimethoxyphenyl)-5,7-dimethoxy-4-oxo-4H-chromen-3-yloxy)-N-(5–(4-fluorophenyl)-1,3,4-oxadiazol-2-yl)acetamide] |
| 229 to 231 | 4.3 ± 0.77 | COc1cc(OC)c2c(=O)c(OCC(=O)Nc3nnc(-c4cccc(F)c4)o3)c(-c3ccc(OC)c(OC)c3)oc2c1 [B3, 2–(2-(3,4-dimethoxyphenyl)-5,7-dimethoxy-4-oxo-4H-chromen-3-yloxy)-N-(5–(3-fluorophenyl)-1,3,4-oxadiazol-2-yl)acetamide] |
| 235 to 237 | 15.3 ± 2.71 | COc1cc(OC)c2c(=O)c(OCC(=O)Nc3nnc(-c4ccccc4F)o3)c(-c3ccc(OC)c(OC)c3)oc2c1 [B4, 2–(2-(3,4-dimethoxyphenyl)-5,7-dimethoxy-4-oxo-4H-chromen-3-yloxy)-N-(5–(2-fluorophenyl)-1,3,4-oxadiazol-2-yl)acetamide] |
| 213 to 215 | 4.22 ± 0.62 | COc1cc(OC)c2c(=O)c(OCC(=O)Nc3nnc(-c4ccc(Cl)cc4)o3)c(-c3ccc(OC)c(OC)c3)oc2c1 [B5, N-(5–(4-chlorophenyl)-1,3,4-oxadiazol-2-yl)-2–(2-(3,4-dimethoxyphenyl)-5,7-dimethoxy-4-oxo-4H-chromen-3-yloxy)acetamide] |
| 220 to 222 | 15.4 ± 4.2 | COc1cc(OC)c2c(=O)c(OCC(=O)Nc3nnc(-c4cccc(Cl)c4)o3)c(-c3ccc(OC)c(OC)c3)oc2c1 [B6, N-(5–(3-chlorophenyl)-1,3,4-oxadiazol-2-yl)-2–(2-(3,4-dimethoxyphenyl)-5,7-dimethoxy-4-oxo-4H-chromen-3-yloxy)acetamide] |
| 221 to 223 | 24.3 ± 2.7 | COc1cc(OC)c2c(=O)c(OCC(=O)Nc3nnc(-c4ccccc4Cl)o3)c(-c3ccc(OC)c(OC)c3)oc2c1 [B7, N-(5–(2-chlorophenyl)-1,3,4-oxadiazol-2-yl)-2–(2-(3,4-dimethoxyphenyl)-5,7-dimethoxy-4-oxo-4H-chromen-3-yloxy)acetamide] |
| 212 to 214 | 4.29 ± 0.83 | COc1cc(OC)c2c(=O)c(OCC(=O)Nc3nnc(-c4ccc(Br)cc4)o3)c(-c3ccc(OC)c(OC)c3)oc2c1 [B8, N-(5–(4-bromophenyl)-1,3,4-oxadiazol-2-yl)-2–(2-(3,4-dimethoxyphenyl)-5,7-dimethoxy-4-oxo-4H-chromen-3-yloxy)acetamide] |
| 204 to 206 | 2.9 ± 0.45 | COc1cc(OC)c2c(=O)c(OCC(=O)Nc3nnc(-c4cccc(Br)c4)o3)c(-c3ccc(OC)c(OC)c3)oc2c1 [B9, N-(5–(3-bromophenyl)-1,3,4-oxadiazol-2-yl)-2–(2-(3,4-dimethoxyphenyl)-5,7-dimethoxy-4-oxo-4H-chromen-3-yloxy)acetamide] |
| 226 to 228 | > 60 | COc1cc(OC)c2c(=O)c(OCC(=O)Nc3nnc(-c4ccccc4Br)o3)c(-c3ccc(OC)c(OC)c3)oc2c1 [B10, N-(5–(2-bromophenyl)-1,3,4-oxadiazol-2-yl)-2–(2-(3,4-dimethoxyphenyl)-5,7-dimethoxy-4-oxo-4H-chromen-3-yloxy)acetamide] |
| 239 to 241 | 5.65 ± 1.77 | COc1cc(OC)c2c(=O)c(OCC(=O)Nc3nnc(-c4ccc(C)cc4)o3)c(-c3ccc(OC)c(OC)c3)oc2c1 [B11, 2–(2-(3,4-dimethoxyphenyl)-5,7-dimethoxy-4-oxo-4H-chromen-3-yloxy)-N-(5-p-tolyl-1,3,4-oxadiazol-2-yl)acetamide] |
| 221 to 223 | > 60 | COc1cc(OC)c2c(=O)c(OCC(=O)Nc3nnc(-c4cccc(C)c4)o3)c(-c3ccc(OC)c(OC)c3)oc2c1 [B12, 2–(2-(3,4-dimethoxyphenyl)-5,7-dimethoxy-4-oxo-4H-chromen-3-yloxy)-N-(5-m-tolyl-1,3,4-oxadiazol-2-yl)acetamide] |
| 234 to 236 | 8.09 ± 2.25 | COc1cc(OC)c2c(=O)c(OCC(=O)Nc3nnc(-c4ccccc4C)o3)c(-c3ccc(OC)c(OC)c3)oc2c1 [B13, 2–(2-(3,4-dimethoxyphenyl)-5,7-dimethoxy-4-oxo-4H-chromen-3-yloxy)-N-(5-o-tolyl-1,3,4-oxadiazol-2-yl)acetamide] |
| 235 to 237 | 8.29 ± 1.33 | COc1cc(OC)c2c(=O)c(OCC(=O)Nc3nnc(-c4cccc([N+](=O)[O-])c4)o3)c(-c3ccc(OC)c(OC)c3)oc2c1 [B14, 2–(2-(3,4-dimethoxyphenyl)-5,7-dimethoxy-4-oxo-4H-chromen-3-yloxy)-N-(5–(3-nitrophenyl)-1,3,4-oxadiazol-2-yl)acetamide] |
| 254 to 256 | 17.2 ± 2.98 | COc1cc(OC)c2c(=O)c(OCC(=O)Nc3nnc(-c4ccccc4[N+](=O)[O-])o3)c(-c3ccc(OC)c(OC)c3)oc2c1 [B15, 2–(2-(3,4-dimethoxyphenyl)-5,7-dimethoxy-4-oxo-4H-chromen-3-yloxy)-N-(5–(2-nitrophenyl)-1,3,4-oxadiazol-2-yl)acetamide] |
| 210 to 212 | 1.29 ± 0.2 | COc1cc(OC)c2c(=O)c(OCC(=O)Nc3nnc(-c4ccc(C(F)(F)F)cc4)o3)c(-c3ccc(OC)c(OC)c3)oc2c1 [B16, 2–(2-(3,4-dimethoxyphenyl)-5,7-dimethoxy-4-oxo-4H-chromen-3-yloxy)-N-(5–(4-(trifluoromethyl)phenyl)-1,3,4-oxadiazol-2-yl)acetamide] |
| 195 to 197 | 27.6 ± 3.11 | COc1cc(OC)c2c(=O)c(OCC(=O)Nc3nnc(-c4cccc(C(F)(F)F)c4)o3)c(-c3ccc(OC)c(OC)c3)oc2c1 [B17, 2–(2-(3,4-dimethoxyphenyl)-5,7-dimethoxy-4-oxo-4H-chromen-3-yloxy)-N-(5–(3-(trifluoromethyl)phenyl)-1,3,4-oxadiazol-2-yl)acetamide] |
| 225 to 227 | 2.79 ± 0.55 | COc1cc(OC)c2c(=O)c(OCC(=O)Nc3nnc(-c4ccccc4C(F)(F)F)o3)c(-c3ccc(OC)c(OC)c3)oc2c1 [B18, 2–(2-(3,4-dimethoxyphenyl)-5,7-dimethoxy-4-oxo-4H-chromen-3-yloxy)-N-(5–(2-(trifluoromethyl)phenyl)-1,3,4-oxadiazol-2-yl)acetamide] |
| 217 to 219 | 1.77 ± 0.6 | COc1cc(OC)c2c(=O)c(OCC(=O)Nc3nnc(-c4ccc(OC(F)(F)F)cc4)o3)c(-c3ccc(OC)c(OC)c3)oc2c1 [B19, 2–(2-(3,4-dimethoxyphenyl)-5,7-dimethoxy-4-oxo-4H-chromen-3-yloxy)-N-(5–(4-(trifluoromethoxy)phenyl)-1,3,4-oxadiazol-2-yl)acetamide] |
| 207 to 209 | 20 ± 1.96 | COc1cc(OC)c2c(=O)c(OCC(=O)Nc3nnc(-c4cccc(OC(F)(F)F)c4)o3)c(-c3ccc(OC)c(OC)c3)oc2c1 [B20, 2–(2-(3,4-dimethoxyphenyl)-5,7-dimethoxy-4-oxo-4H-chromen-3-yloxy)-N-(5–(3-(trifluoromethoxy)phenyl)-1,3,4-oxadiazol-2-yl)acetamide] |
| 226 to 228 | 9.22 ± 1.01 | COc1cc(OC)c2c(=O)c(OCC(=O)Nc3nnc(-c4ccccc4OC(F)(F)F)o3)c(-c3ccc(OC)c(OC)c3)oc2c1 [B21, 2–(2-(3,4-dimethoxyphenyl)-5,7-dimethoxy-4-oxo-4H-chromen-3-yloxy)-N-(5–(2-(trifluoromethoxy)phenyl)-1,3,4-oxadiazol-2-yl)acetamide] |
| 206 to 208 | 14.3 ± 1.33 | COc1ccc(-c2nnc(NC(=O)COc3c(-c4ccc(OC)c(OC)c4)oc4cc(OC)cc(OC)c4c3=O)o2)cc1 [B22, 2–(2-(3,4-dimethoxyphenyl)-5,7-dimethoxy-4-oxo-4H-chromen-3-yloxy)-N-(5–(4-methoxyphenyl)-1,3,4-oxadiazol-2-yl)acetamide] |
| 205 to 207 | 2.44 ± 0.42 | COc1cccc(-c2nnc(NC(=O)COc3c(-c4ccc(OC)c(OC)c4)oc4cc(OC)cc(OC)c4c3=O)o2)c1 [B23, 2–(2-(3,4-dimethoxyphenyl)-5,7-dimethoxy-4-oxo-4H-chromen-3-yloxy)-N-(5–(3-methoxyphenyl)-1,3,4-oxadiazol-2-yl)acetamide] |
| 232 to 234 | 4.17 ± 0.7 | COc1cc(OC)c2c(=O)c(OCC(=O)Nc3nnc(-c4ccc(F)c(Cl)c4)o3)c(-c3ccc(OC)c(OC)c3)oc2c1 [B24, N-(5–(3-chloro-4-fluorophenyl)-1,3,4-oxadiazol-2-yl)-2–(2-(3,4-dimethoxyphenyl)-5,7-dimethoxy-4-oxo-4H-chromen-3-yloxy)acetamide] |
| 230 to 232 | > 60 | COc1cc(OC)c2c(=O)c(OCC(=O)Nc3nnc(-c4ccc(Cl)c(Cl)c4)o3)c(-c3ccc(OC)c(OC)c3)oc2c1 [B25, N-(5–(3,4-dichlorophenyl)-1,3,4-oxadiazol-2-yl)-2–(2-(3,4-dimethoxyphenyl)-5,7-dimethoxy-4-oxo-4H-chromen-3-yloxy)acetamide] |
| 200 to 202 | 3.99 ± 0.85 | COc1cc(OC)cc(-c2nnc(NC(=O)COc3c(-c4ccc(OC)c(OC)c4)oc4cc(OC)cc(OC)c4c3=O)o2)c1 [B26, N-(5–(3,5-dimethoxyphenyl)-1,3,4-oxadiazol-2-yl)-2–(2-(3,4-dimethoxyphenyl)-5,7-dimethoxy-4-oxo-4H-chromen-3-yloxy)acetamide] |
